The record followed here is PMC4770715, “LIM kinase inhibitors disrupt mitotic microtubule organization and impair tumor cell proliferation” (Oncotarget, 2015).

Some targets named below: CAMK4 (Homo sapiens, UniProt Q16566); CAMKK2 (Homo sapiens, UniProt Q96RR4); CSNK1D (Homo sapiens, UniProt P48730); DYRK1B (Homo sapiens, UniProt Q9Y463); FLT3(K663Q) (Homo sapiens, UniProt P36888, K663Q); FRK (Homo sapiens, UniProt P42685); INSR (Homo sapiens, UniProt P06213); KIT(L576P) (Homo sapiens, UniProt P10721, L576P); LRRK2 (Homo sapiens, UniProt Q5S007); NEK7 (Homo sapiens, UniProt Q8TDX7); PIK3CB (Homo sapiens, UniProt P42338); PIK3CG (Homo sapiens, UniProt P48736); PLK3 (Homo sapiens, UniProt Q9H4B4); RIOK3 (Homo sapiens, UniProt O14730); TRPM6 (Homo sapiens, UniProt Q9BX84); VRK2 (Homo sapiens, UniProt Q86Y07).

Experiment in all cases: biochemical
What all share (design): KINOMEscan active-site competition binding, percent of control (100 = no competition)
Conditions in all cases: competition binding, percent control

A further assay has as its target T1, DCAMKL3 (Homo sapiens, UniProt Q9C098).
T1 construct: gene DCLK3

A further assay addresses T2, DMPK2 (Homo sapiens, UniProt Q6DT37).
T2 construct: gene CDC42BPG

In assay [1] the target is EGFR(L747-E749del, A750P) (Homo sapiens, UniProt P00533, A750P/DEL747-749).
In another assay the target is T3, ERK5 (Homo sapiens, UniProt Q13164).
T3 construct: gene MAPK7

In the next assay the target is T4, GCN2(Kin.Dom.2,S808G) (Homo sapiens, UniProt Q9P2K8, S808G).
T4 construct: gene EIF2AK4; Kin.Dom.2
T4 sequence (Q9P2K8 whole entry S808G): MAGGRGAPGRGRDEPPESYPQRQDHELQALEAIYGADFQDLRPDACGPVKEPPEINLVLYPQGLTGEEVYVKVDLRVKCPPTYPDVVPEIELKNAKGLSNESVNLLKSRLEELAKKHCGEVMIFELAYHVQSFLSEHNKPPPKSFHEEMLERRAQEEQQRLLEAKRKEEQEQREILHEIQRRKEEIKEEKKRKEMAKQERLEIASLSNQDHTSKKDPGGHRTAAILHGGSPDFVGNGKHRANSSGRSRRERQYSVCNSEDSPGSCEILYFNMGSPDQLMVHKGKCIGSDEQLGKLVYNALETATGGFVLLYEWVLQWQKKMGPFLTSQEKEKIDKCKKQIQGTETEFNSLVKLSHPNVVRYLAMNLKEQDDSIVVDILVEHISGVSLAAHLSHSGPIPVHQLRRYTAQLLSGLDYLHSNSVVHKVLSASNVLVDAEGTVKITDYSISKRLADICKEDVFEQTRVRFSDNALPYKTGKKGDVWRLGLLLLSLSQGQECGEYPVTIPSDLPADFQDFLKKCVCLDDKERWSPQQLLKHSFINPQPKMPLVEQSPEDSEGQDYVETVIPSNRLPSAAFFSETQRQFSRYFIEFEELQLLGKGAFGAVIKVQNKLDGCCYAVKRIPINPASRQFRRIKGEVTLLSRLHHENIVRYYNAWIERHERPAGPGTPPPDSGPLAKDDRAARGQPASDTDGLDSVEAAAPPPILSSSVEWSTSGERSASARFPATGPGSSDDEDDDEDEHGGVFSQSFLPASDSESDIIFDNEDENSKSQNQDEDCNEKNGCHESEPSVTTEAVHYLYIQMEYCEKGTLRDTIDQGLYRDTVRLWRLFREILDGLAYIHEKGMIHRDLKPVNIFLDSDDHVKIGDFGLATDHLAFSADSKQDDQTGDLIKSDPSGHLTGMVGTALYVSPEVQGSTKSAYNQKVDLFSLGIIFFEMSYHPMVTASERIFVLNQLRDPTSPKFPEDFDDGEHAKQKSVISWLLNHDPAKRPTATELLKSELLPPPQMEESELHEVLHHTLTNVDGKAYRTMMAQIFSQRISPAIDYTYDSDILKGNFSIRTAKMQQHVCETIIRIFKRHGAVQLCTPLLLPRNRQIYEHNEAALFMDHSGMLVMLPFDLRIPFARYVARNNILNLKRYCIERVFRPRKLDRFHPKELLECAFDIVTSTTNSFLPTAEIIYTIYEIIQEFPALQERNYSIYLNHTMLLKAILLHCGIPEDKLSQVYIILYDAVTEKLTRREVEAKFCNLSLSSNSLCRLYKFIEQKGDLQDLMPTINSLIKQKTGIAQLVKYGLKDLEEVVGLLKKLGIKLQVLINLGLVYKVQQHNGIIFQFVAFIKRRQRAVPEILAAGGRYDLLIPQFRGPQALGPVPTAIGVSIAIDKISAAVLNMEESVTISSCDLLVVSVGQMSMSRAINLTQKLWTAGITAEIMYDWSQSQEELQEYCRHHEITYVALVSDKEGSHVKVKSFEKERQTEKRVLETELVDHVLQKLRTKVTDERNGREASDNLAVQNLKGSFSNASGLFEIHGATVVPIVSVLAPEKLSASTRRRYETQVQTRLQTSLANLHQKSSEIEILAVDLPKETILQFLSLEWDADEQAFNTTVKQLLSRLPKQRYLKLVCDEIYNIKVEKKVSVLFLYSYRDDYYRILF

The next assay deals with T5, MST3 (Homo sapiens, UniProt Q9Y6E0).
T5 construct: gene STK24

The target of a further assay is T6, NDR1 (Homo sapiens, UniProt Q15208).
T6 construct: gene STK38

PLK3, sequence (Q9H4B4 whole entry): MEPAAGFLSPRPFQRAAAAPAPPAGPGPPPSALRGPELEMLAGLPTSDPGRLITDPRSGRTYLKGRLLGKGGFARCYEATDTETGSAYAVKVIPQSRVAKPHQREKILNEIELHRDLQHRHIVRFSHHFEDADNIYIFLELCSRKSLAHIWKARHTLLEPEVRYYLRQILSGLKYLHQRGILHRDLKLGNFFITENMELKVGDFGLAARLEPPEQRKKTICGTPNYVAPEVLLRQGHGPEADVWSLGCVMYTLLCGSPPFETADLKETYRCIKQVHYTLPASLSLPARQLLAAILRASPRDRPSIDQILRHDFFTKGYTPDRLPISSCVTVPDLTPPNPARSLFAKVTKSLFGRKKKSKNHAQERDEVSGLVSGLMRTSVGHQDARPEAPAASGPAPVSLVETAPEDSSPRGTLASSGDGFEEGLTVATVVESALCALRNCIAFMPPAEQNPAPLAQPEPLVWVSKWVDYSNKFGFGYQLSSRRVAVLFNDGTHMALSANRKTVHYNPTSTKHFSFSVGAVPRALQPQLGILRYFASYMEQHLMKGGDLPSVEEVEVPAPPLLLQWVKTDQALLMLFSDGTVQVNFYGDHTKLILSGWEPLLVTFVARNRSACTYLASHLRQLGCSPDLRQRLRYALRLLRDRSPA
NEK7, sequence (Q8TDX7 whole entry): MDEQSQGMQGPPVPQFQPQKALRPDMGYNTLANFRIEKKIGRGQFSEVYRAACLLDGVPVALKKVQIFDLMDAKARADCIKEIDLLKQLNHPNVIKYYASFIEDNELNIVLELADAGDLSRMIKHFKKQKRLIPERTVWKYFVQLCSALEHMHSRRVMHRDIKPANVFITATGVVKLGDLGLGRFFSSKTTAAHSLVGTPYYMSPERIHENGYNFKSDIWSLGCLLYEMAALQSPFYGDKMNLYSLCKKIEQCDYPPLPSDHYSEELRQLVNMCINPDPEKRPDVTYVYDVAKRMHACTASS
INSR, sequence (P06213 whole entry): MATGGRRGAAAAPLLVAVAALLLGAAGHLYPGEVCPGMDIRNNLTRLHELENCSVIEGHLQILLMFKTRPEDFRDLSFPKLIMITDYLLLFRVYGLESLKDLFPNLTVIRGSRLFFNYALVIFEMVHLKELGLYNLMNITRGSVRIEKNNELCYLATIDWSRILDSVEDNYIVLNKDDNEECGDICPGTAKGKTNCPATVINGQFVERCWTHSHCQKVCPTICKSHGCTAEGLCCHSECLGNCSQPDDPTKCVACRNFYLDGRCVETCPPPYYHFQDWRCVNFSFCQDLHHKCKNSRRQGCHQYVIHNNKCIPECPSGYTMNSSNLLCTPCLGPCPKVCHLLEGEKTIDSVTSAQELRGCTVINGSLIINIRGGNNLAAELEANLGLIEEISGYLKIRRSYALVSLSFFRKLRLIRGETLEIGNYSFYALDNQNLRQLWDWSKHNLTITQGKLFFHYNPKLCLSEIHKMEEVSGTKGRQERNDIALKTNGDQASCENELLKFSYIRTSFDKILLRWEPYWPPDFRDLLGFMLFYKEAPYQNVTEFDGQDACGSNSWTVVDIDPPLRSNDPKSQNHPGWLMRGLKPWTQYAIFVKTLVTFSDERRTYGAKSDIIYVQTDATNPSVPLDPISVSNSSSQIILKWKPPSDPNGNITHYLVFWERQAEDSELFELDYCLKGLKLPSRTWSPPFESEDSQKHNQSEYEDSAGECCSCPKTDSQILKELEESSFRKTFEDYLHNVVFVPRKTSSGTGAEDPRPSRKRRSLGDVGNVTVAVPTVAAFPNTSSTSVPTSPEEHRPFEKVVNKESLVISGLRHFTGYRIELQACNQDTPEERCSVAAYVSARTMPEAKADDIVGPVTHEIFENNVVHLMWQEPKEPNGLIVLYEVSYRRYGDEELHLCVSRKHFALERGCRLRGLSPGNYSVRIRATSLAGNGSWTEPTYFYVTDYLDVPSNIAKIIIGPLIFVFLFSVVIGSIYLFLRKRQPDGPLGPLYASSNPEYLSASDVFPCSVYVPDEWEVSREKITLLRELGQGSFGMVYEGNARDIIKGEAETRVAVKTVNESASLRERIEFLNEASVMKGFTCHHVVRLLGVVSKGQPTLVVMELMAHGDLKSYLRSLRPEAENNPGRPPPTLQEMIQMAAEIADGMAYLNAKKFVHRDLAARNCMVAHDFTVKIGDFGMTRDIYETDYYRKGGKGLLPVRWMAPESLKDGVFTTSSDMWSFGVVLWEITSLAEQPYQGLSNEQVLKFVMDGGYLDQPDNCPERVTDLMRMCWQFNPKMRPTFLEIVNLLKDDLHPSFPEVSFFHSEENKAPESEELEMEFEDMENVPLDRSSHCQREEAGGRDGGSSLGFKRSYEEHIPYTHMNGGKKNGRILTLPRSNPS
VRK2, sequence (Q86Y07 whole entry): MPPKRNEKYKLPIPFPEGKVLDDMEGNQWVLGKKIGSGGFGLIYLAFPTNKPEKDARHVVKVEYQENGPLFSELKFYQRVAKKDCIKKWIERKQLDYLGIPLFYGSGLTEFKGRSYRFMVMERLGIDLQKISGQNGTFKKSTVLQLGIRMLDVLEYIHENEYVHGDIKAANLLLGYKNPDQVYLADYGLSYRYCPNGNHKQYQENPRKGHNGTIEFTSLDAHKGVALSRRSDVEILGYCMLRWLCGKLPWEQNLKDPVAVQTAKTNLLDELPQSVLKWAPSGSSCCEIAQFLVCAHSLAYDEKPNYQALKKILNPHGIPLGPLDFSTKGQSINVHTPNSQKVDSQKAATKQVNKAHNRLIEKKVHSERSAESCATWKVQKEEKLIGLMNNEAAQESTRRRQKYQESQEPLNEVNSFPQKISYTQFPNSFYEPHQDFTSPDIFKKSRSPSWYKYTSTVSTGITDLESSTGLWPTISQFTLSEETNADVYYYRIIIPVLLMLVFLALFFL
CAMKK2, sequence (Q96RR4 whole entry): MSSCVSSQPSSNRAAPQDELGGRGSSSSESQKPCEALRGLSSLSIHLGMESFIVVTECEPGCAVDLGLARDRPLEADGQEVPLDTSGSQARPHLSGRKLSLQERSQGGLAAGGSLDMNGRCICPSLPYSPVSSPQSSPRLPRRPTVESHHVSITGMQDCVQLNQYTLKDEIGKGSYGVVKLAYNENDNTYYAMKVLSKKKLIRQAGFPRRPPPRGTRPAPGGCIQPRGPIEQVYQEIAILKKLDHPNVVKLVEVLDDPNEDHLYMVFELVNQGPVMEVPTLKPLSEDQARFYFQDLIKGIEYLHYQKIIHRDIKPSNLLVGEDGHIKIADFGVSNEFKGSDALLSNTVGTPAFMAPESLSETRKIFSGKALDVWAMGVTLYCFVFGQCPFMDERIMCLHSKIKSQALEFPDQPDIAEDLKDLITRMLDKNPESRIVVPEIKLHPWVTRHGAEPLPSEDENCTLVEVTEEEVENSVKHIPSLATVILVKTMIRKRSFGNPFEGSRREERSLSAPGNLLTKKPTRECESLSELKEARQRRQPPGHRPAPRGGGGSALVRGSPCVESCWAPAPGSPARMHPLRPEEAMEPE

Turning to `COc1ccc(-c2cnccc2-c2cnc(NC(=O)C(C)C)s2)c(C(F)(F)F)c1` [CRT0105446, N-{5-[3-(4-Methoxy-2-trifluoromethyl-phenyl)-pyridin-4-yl]-hiazol-2-yl}-isobutyramide], the remaining binding at 10 µM was determined as 98% on CAMK4; 95% on CAMKK2; 27% at CSNK1D; 88% at DCAMKL3; 93% on DMPK2; 40% at DYRK1B. In addition, the remaining binding at 10 µM in [1] was 98%; at ERK5, 86%; on FLT3(K663Q), 34%; at FRK, 98%; at GCN2(Kin.Dom.2,S808G) it was 92%; on INSR, 100%. Further, the remaining binding at 10 µM was found to be 36% on KIT(L576P); 91% at LRRK2; 72% at MST3; 100% on NDR1; 100% at NEK7; 95% on PIK3CB. Also, the remaining binding at 10 µM at PIK3CG was 96%; on PLK3, 97%; at RIOK3 it was 94%; on TRPM6 it was 94%; at VRK2, 95%.
`Cc1ccc(-c2cnccc2-c2cnc(Nc3ccc(O)cc3)s2)c(Cl)c1` [CRT0105950, 4-{5-[3-(2-Chloro-4-methyl-phenyl)-pyridin-4-yl]-thiazol-2-ylamino}-phenol]: the remaining binding at 10 µM at CAMK4 was 90%; at CAMKK2, 43%; at CSNK1D it was 6.1%; at DCAMKL3 it was 7.4%; at DMPK2, 71%; on DYRK1B it was 5.6%. Moreover, the remaining binding at 10 µM in [1] came out at 64%; on ERK5 it was 93%; on FLT3(K663Q), 0.5%; at FRK it was 59%; on GCN2(Kin.Dom.2,S808G) it was 94%; at INSR it was 1%. Further, the remaining binding at 10 µM came out at 0.4% at KIT(L576P); 54% at LRRK2; 40% on MST3; 86% on NDR1; 100% on NEK7; 80% at PIK3CB. For the same molecule, the remaining binding at 10 µM on PIK3CG stood at 82%; on PLK3 it was 44%; on RIOK3 it was 66%; at TRPM6, 93%; on VRK2, 72%.
